9 compounds from ChEMBL document CHEMBL5120821, “Diterpenoids from Sauropus spatulifolius Leaves with Antimicrobial Activities” (2022) can be followed below.

In one experiment the test system is Bacillus subtilis. The experiment in a line: Antibacterial activity against Bacillus subtilis ATCC 6633 assessed as bacterial growth inhibition incubated for 18 hrs by microdilution method. In kind it is functional.
The subject of a further experiment is Escherichia coli. The experiment in a line: Antibacterial activity against Escherichia coli ATCC 25922 assessed as bacterial growth inhibition incubated for 18 hrs by microdilution method. The format is functional. On the technique in general: Dilution methods test growth across graded concentrations, often in twofold steps.
In the next experiment the test system is Streptococcus pneumoniae. The experiment in a line: Antibacterial activity against Streptococcus pneumoniae ATCC 49619 assessed as bacterial growth inhibition incubated for 18 hrs by microdilution method. In kind it is functional.
For experiment [1], the system named is Staphylococcus epidermidis. The experiment in a line: Antibacterial activity against Staphylococcus epidermidis ATCC 12228 assessed as bacterial growth inhibition incubated for 18 hrs by microdilution method. The format is functional.
For another experiment, the system named is Shigella flexneri. Nature of the experiment: Antibacterial activity against Shigella flexneris ATCC 12022 assessed as bacterial growth inhibition incubated for 18 hrs by microdilution method. The format is functional.
A further experiment relates to Micrococcus luteus. The experiment in a line: Antibacterial activity against Micrococcus luteus ATCC 9341 assessed as bacterial growth inhibition incubated for 18 hrs by microdilution method. The format is functional.
The next experiment concerns Staphylococcus aureus. Nature of the experiment: Antibacterial activity against Staphylococcus aureus ATCC 25923 assessed as bacterial growth inhibition incubated for 18 hrs by microdilution method. The format is functional.
The subject of the next experiment is Influenza A virus. The experiment in a line: Antiviral activity against PR8-GFP transfected IAV infected in MDCK cells assessed as inhibition of viral replication at MOI of 0.01 at 10 uM preincubated for 8 hrs followed by infected with virus incubated for 24 hrs by fluorescence microscope analysis. The format is functional, organism-based. The following applies: time 32.0 hrs.

The subject of experiment [2] is Vesicular stomatitis virus. Nature of the experiment: Antiviral activity against GFP transfected VSV infected in MDCK cells assessed as inhibition of viral replication at MOI of 0.1 at 10 uM preincubated for 8 hrs followed by infected with virus incubated for 24 hrs by fluorescence microscope analysis. The following applies: time 32.0 hrs. The format is functional, organism-based.

Experiment [3] relates to Vesicular stomatitis virus. The experiment in a line: Antiviral activity against GFP transfected VSV infected in MDCK cells assessed as inhibition of viral replication at MOI of 0.1 at 10 uM preincubated for 8 hrs followed by infected with virus incubated for 24 hrs by flow cytometry (reference value: 51.3+/-1.1%). The format is functional. More on the design: scale not given: the % may be the effect or the level left. The following applies: time 32 hrs.

Converted amounts (≈) assume the structure as drawn. The source made the active and inactive calls. A value given as a limit tells only on which side of the number the result lay.

The term MIC denotes the smallest concentration in the dilution series that meets the test's criterion for growth inhibition. Consider `Cc1cc2c(cc1O)[C@]1(C)C[C@@H](O)[C@@H](O)C(C)(C)C1=CC2=O`, for which the MIC (with Bacillus subtilis; in the experiment on Escherichia coli; with Streptococcus pneumoniae; in [1]; with Shigella flexneri; in the experiment on Micrococcus luteus) was over 64 µg/mL throughout. In addition, the MIC with Staphylococcus aureus was over 64 µg/mL.
Consider `CC[C@H]1OC(=O)[C@H](C)[C@@H](O[C@H]2C[C@@](C)(OC)[C@@H](O)[C@H](C)O2)[C@H](C)[C@@H](O[C@@H]2O[C@H](C)C[C@H](N(C)C)[C@H]2O)[C@](C)(OC)C[C@@H](C)C(=O)[C@H](C)[C@@H](O)[C@]1(C)O` [CLARITHROMYCIN], for which the MIC is under 0.125 µg/mL with Bacillus subtilis; 2 µg/mL (≈ 2.67 µM) with Escherichia coli; under 0.125 µg/mL in the experiment with Streptococcus pneumoniae; 0.25 µg/mL (≈ 0.334 µM) in [1]; under 0.125 µg/mL in the experiment on Shigella flexneri; under 0.125 µg/mL in the experiment with Micrococcus luteus. Also, the MIC with Staphylococcus aureus came out at 0.25 µg/mL (≈ 0.334 µM).
Turning to `C=CC1=C(C)C(=O)C=C2[C@]1(O)CC[C@@H]1C(C)(C)[C@H](O)[C@H](O)C[C@@]21C`, the MIC (in the experiment with Bacillus subtilis; in the experiment on Escherichia coli; with Streptococcus pneumoniae; in experiment [1]; in the experiment on Shigella flexneri; in the experiment with Micrococcus luteus) was over 64 µg/mL throughout. Besides, the MIC in the experiment on Staphylococcus aureus is over 64 µg/mL.
As for `Cc1ccc2c(c1)CC[C@@H]1C(C)(C)[C@H](O)[C@H](O)C[C@@]21C`, the MIC (in the experiment with Bacillus subtilis; with Escherichia coli; with Streptococcus pneumoniae; in experiment [1]; with Shigella flexneri; in the experiment on Micrococcus luteus) was over 64 µg/mL in each case. In the experiment with Staphylococcus aureus, the MIC is over 64 µg/mL.
As to `C=Cc1ccc2c(c1)CC[C@@H]1C(C)(C)[C@H](O)[C@H](O)C[C@@]21C`, the MIC (in the experiment on Bacillus subtilis; in the experiment with Escherichia coli; with Streptococcus pneumoniae; in experiment [1]; in the experiment with Shigella flexneri; with Micrococcus luteus) was over 64 µg/mL throughout. In the experiment on Staphylococcus aureus, the MIC was over 64 µg/mL.
Regarding `CC1=CC2=CC[C@@H]3C(C)(C)[C@H](O)[C@H](O)C[C@@]3(C)[C@@H]2CC1=O`, the MIC (in the experiment on Bacillus subtilis; in the experiment on Escherichia coli; in the experiment on Streptococcus pneumoniae; in experiment [1]; with Shigella flexneri; with Micrococcus luteus) was over 64 µg/mL in each case. For the same compound, the MIC with Staphylococcus aureus is over 64 µg/mL.
In the case of `C=Cc1c(C)c(O)cc2c1CC[C@@H]1C(C)(C)[C@H](O)[C@H](O)C[C@@]21C`, the result (in the experiment on Influenza A virus; in experiment [2]) was Active. Also, the MIC with Bacillus subtilis is 12 µg/mL (≈ 37.9 µM); with Escherichia coli, over 64 µg/mL; in the experiment on Streptococcus pneumoniae it was 16 µg/mL (≈ 50.6 µM); in [1], 12 µg/mL (≈ 37.9 µM); in the experiment with Shigella flexneri it was 12 µg/mL (≈ 37.9 µM); in the experiment on Micrococcus luteus, 16 µg/mL (≈ 50.6 µM). Also, the MIC in the experiment on Staphylococcus aureus is 12 µg/mL (≈ 37.9 µM). Besides, the Activity in [3] stood at 3.4%.
For `Cc1cc2c(cc1O)[C@]1(C)C[C@@H](O)[C@@H](O)C(C)(C)[C@H]1CC2=O`, the minimal inhibitory concentration (MIC) (in the experiment on Bacillus subtilis; in the experiment with Escherichia coli; in the experiment on Streptococcus pneumoniae; in experiment [1]; with Shigella flexneri; in the experiment on Micrococcus luteus) was over 64 µg/mL throughout. Also, in the experiment on Staphylococcus aureus, the MIC is over 64 µg/mL.
Consider `Cc1cc2c(cc1O)[C@]1(C)C[C@@H](O)[C@@H](O)C(C)(C)[C@H]1CC2`, for which the MIC in the experiment on Bacillus subtilis was 32 µg/mL (≈ 110 µM); with Escherichia coli, over 64 µg/mL; with Streptococcus pneumoniae, 32 µg/mL (≈ 110 µM); in [1] it was 32 µg/mL (≈ 110 µM); with Shigella flexneri, 32 µg/mL (≈ 110 µM); in the experiment on Micrococcus luteus, 32 µg/mL (≈ 110 µM). Moreover, the MIC in the experiment with Staphylococcus aureus came to 32 µg/mL (≈ 110 µM).
